# Values of other authors, collected in patent US20120191185A1, “OPHTHALMIC INTRAOCULAR LENS FOR PROMOTING HEALING” (priority 2011, published 2012).
# Assays:
# [1] = system: posterior capsule opacification; conditions: rabbits
# [2] = subconjunctival administration
# [3] = primates
# corneal anterior stroma = conditions: mammals, clinical setting
compound,measurement,setting,value
O=c1[nH]cc(F)c(=O)[nH]1 [5-fluorouracil],effect on posterior capsule opacification,[1],reduces posterior capsule opacification
same,ocular complications,[2],corneal epithelial defects and other ocular complications
COc1cc2c(c(OC)c1OC)-c1ccc(OC)c(=O)cc1[C@@H](NC(C)=O)CC2 [colchicine],inhibition of lens epithelial cell proliferation and migration,lens epithelial cell,potent inhibitor
same,toxic effect on the optic nerve,[3],temporary toxic effect on the optic nerve
platelet derived growth factor,corneal anterior stroma healing,corneal anterior stroma,accelerate corneal anterior stroma healing
